Source: patent US3985761A, “Nitrothiazolyl derivatives of nitrostyrene” (priority 1974, dated 1976)
≈ marks a conversion by molar mass, not a printed value. Like-named read-outs stand apart in the source and are kept apart here.

Columns and labels:
Candida albicans = test: Antimicrobial serial dilution (MIC), C.a; assay type: cell-based
[1] = system: Trichophyton mentagrophytes; test: Antimicrobial serial dilution (MIC), T.m; assay type: cell-based
microsporum gypseum = test: Antimicrobial serial dilution (MIC), M.gy; assay type: cell-based; settings: Nannizzia gypsea
Phialophora jeanselmei = test: Antimicrobial serial dilution (MIC), Ph.je; assay type: cell-based; settings: Exophiala jeanselmei
Nocardia asteroides = test: Antimicrobial serial dilution (MIC), N.a; assay type: cell-based
Aspergillus fumigatus = test: Antimicrobial serial dilution (MIC), A.f; assay type: cell-based
Staph. aureus = test: Antimicrobial serial dilution (MIC), S.a; assay type: cell-based; settings: Staphylococcus aureus
[2] = system: antibiotic resistant Staph aureus; test: Antimicrobial serial dilution (MIC), A/R S.a; assay type: cell-based; settings: Staphylococcus aureus, read-out: MIC A/R S.a
E.coli = test: Antimicrobial serial dilution (MIC), E.c.; assay type: cell-based; settings: Escherichia coli
S.Shigae = test: microbe, parasite or virus in culture; assay type: cell-based; settings: Shigella dysenteriae, read-out: MIC S.s
S. typhi = test: Antimicrobial serial dilution (MIC), S.t; assay type: cell-based; settings: Salmonella enterica
Proteus vulgaris ox 19 = test: Antimicrobial serial dilution (MIC), Pr.ox; assay type: cell-based; settings: OX19
Ps. aeruginosa = test: Antimicrobial serial dilution (MIC), P.a; assay type: cell-based; settings: Pseudomonas aeruginosa
Hymenolepsis nana = test: Activity against tapeworms Hymenolepsis nana in mice; assay type: in vivo, Hymenolepsis nana (infected Albimo mice); settings: Mus musculus, po, 72 h, read-out: Activity: % of infected mice getting 100% clearance
Protocol: The anthelmintic properties of the products of the invention have been determined as follows:
Albimo mice of either sex (18-20 g.weight range) were administered by gavage 0.2 ml of the standard inoculum (containing 1000 viable eggs). 20 days later, the faecal matter was checked for Hymenolipis nana eggs. Mice showing the presence of H nana eggs were taken for experiments. They were classified on the weight basis. 5 animals were taken in each cage.
Compounds of the invention under investigation were suspended in 0.2% tragacanth. Concentrations were adjusted in such a way that 0.2 ml conformed to particular dosage schedule for each compound. They were administered by gavage in fasting condition in the morning on 21st day post infection, once daily for 3 consecutive days. For each set of test compound group, one cage of infected control mice was kept. These received saline for 3 days.
After 3 consecutive days of administration, all mice were kept fasting on the subsequent day (24th day post infection) and sacrificed on the 25th day. Results of surviving mice only have been taken. From each mouse, the whole intestine including caecum was collected in a petri dish with water. It was cut open longitudinally and was examined for adult worms and scolices. Absolute clearance of worms and scolices in individual mouse was taken as a criterion for assessing the results of each group.
The data on some of the compounds studied are represented in Table II

plant pathogenic fungi = settings: C.A. Vol. 62, 14569e; cited from earlier work

## CCCCNC(=O)Oc1ccc(C=C(C)[N+](=O)[O-])cc1 [drawing 15]
Candida albicans
  MIC: 12.5 to 25 µg/mL (≈ 44.9 to 89.8 µM)
[1]
  MIC: 0.78 µg/mL (≈ 2.8 µM)
Microsporum gypseum
  MIC: 0.39 to 0.78 µg/mL (≈ 1.4 to 2.8 µM)
Phialophora jeanselmei
  MIC: 0.78 µg/mL (≈ 2.8 µM)
Nocardia asteroides
  MIC: 50 µg/mL (≈ 180 µM)
Aspergillus fumigatus
  MIC: 6.25 µg/mL (≈ 22.5 µM)

## CC(=Cc1ccc(Oc2ncc([N+](=O)[O-])s2)cc1)[N+](=O)[O-] [drawing 9]
Staph. aureus
  MIC: 1.56 µg/mL (≈ 5.08 µM)
[2]
  MIC: 1.56 µg/mL (≈ 5.08 µM)
E.coli
  MIC: 3.12 µg/mL (≈ 10.2 µM)
S.Shigae
  MIC: 3.12 µg/mL (≈ 10.2 µM)
S. typhi
  MIC: 50 µg/mL (≈ 163 µM)
Proteus vulgaris ox 19
  MIC: 1.56 to 3.12 µg/mL (≈ 5.08 to 10.2 µM)
Ps. aeruginosa
  MIC: ≥ 50 µg/mL

## CC(=Cc1ccc(Oc2ncc([N+](=O)[O-])s2)cc1)[N+](=O)[O-] [drawing 19]
Candida albicans
  MIC: 3.12 µg/mL (≈ 10.2 µM)
[1]
  MIC: 0.19 µg/mL (≈ 0.618 µM)
Microsporum gypseum
  MIC: 0.39 to 0.78 µg/mL (≈ 1.27 to 2.54 µM)
Phialophora jeanselmei
  MIC: 0.39 µg/mL (≈ 1.27 µM)
Nocardia asteroides
  MIC: 12.5 µg/mL (≈ 40.7 µM)
Aspergillus fumigatus
  MIC: 1.56 µg/mL (≈ 5.08 µM)

## CCCCNC(=O)Oc1ccc(C=C(C)[N+](=O)[O-])cc1Cl
Hymenolepsis nana; 400 mg/kg/day × 3 days, gavage, surviving mice only
  responders at 400 mg/kg: 100%

## CC(=Cc1ccc(OC(=O)NC2CCCCC2)cc1)[N+](=O)[O-] [drawing 6]
Staph. aureus
  MIC: 3.12 µg/mL (≈ 10.3 µM)
[2]
  MIC: 3.12 µg/mL (≈ 10.3 µM)
E.coli
  MIC: 6.12 to 12.5 µg/mL (≈ 20.1 to 41.1 µM)
S.Shigae
  MIC: 12.5 µg/mL (≈ 41.1 µM)
S. typhi
  MIC: 50 µg/mL (≈ 164 µM)
Proteus vulgaris ox 19
  MIC: 6.25 to 12.5 µg/mL (≈ 20.5 to 41.1 µM)
Ps. aeruginosa
  MIC: ≥ 50 µg/mL

## CC(=Cc1cccc(OC(=O)Nc2ccc(C)cc2)c1)[N+](=O)[O-]
Hymenolepsis nana; 200 mg/kg/day × 3 days, gavage, surviving mice only
  responders at 200 mg/kg: 100%

## CC(=Cc1ccc(OC(=O)Nc2ccc(Br)cc2)cc1)[N+](=O)[O-] [drawing 14]
Candida albicans
  MIC: 22.5 to 25 µg/mL (≈ 59.7 to 66.3 µM)
[1]
  MIC: 1.56 µg/mL (≈ 4.14 µM)
Microsporum gypseum
  MIC: 1.56 µg/mL (≈ 4.14 µM)
Phialophora jeanselmei
  MIC: 1.56 µg/mL (≈ 4.14 µM)
Nocardia asteroides
  MIC: 50 µg/mL (≈ 133 µM)
Aspergillus fumigatus
  MIC: 12.5 µg/mL (≈ 33.1 µM)

## O=[N+]([O-])C=Cc1cc(Cl)ccc1O [drawing 21]
Candida albicans
  MIC: 25.5 µg/mL (≈ 128 µM)
[1]
  MIC: 6.25 µg/mL (≈ 31.3 µM)
Microsporum gypseum
  MIC: 6.25 to 12.5 µg/mL (≈ 31.3 to 62.6 µM)
Phialophora jeanselmei
  MIC: 12.5 µg/mL (≈ 62.6 µM)
Nocardia asteroides
  MIC: 25 µg/mL (≈ 125 µM)
Aspergillus fumigatus
  MIC: 12.5 µg/mL (≈ 62.6 µM)

## O=C(Nc1ccc(Br)cc1)Oc1cccc(C=C[N+](=O)[O-])c1
Hymenolepsis nana
  responders at 400 mg/kg: 100%

## O=C(Nc1ccccc1)Oc1ccc(C=C[N+](=O)[O-])cc1
Hymenolepsis nana
  responders at 350 mg/kg: 90%

## CC(=Cc1ccc(OC(=O)Nc2ccccc2)cc1)[N+](=O)[O-] [drawing 17]
Candida albicans
  MIC: 25 µg/mL (≈ 83.8 µM)
[1]
  MIC: 3.12 to 6.25 µg/mL (≈ 10.5 to 21 µM)
Microsporum gypseum
  MIC: 3.12 µg/mL (≈ 10.5 µM)
Phialophora jeanselmei
  MIC: 3.12 µg/mL (≈ 10.5 µM)
Nocardia asteroides
  MIC: 25 µg/mL (≈ 83.8 µM)
Aspergillus fumigatus
  MIC: 6.25 µg/mL (≈ 21 µM)

## Cc1ccc(NC(=O)Oc2ccc(C=C[N+](=O)[O-])cc2)cc1
Hymenolepsis nana
  responders at 400 mg/kg: 94%

## CC(=Cc1ccc(O)c(Cl)c1)[N+](=O)[O-] [drawing 20]
Candida albicans
  MIC: 12.5 µg/mL (≈ 58.5 µM)
[1]
  MIC: 1.56 µg/mL (≈ 7.3 µM)
Microsporum gypseum
  MIC: 1.56 µg/mL (≈ 7.3 µM)
Phialophora jeanselmei
  MIC: 3.12 µg/mL (≈ 14.6 µM)
Nocardia asteroides
  MIC: 50 µg/mL (≈ 234 µM)
Aspergillus fumigatus
  MIC: 6.25 µg/mL (≈ 29.3 µM)

## CC(=Cc1cccc(O)c1)[N+](=O)[O-] [drawing 8]
Staph. aureus
  MIC: 3.12 µg/mL (≈ 17.4 µM)
[2]
  MIC: 3.12 µg/mL (≈ 17.4 µM)
E.coli
  MIC: 3.12 µg/mL (≈ 17.4 µM)
S.Shigae
  MIC: 3.12 µg/mL (≈ 17.4 µM)
S. typhi
  MIC: 50 µg/mL (≈ 279 µM)
Proteus vulgaris ox 19
  MIC: 3.12 µg/mL (≈ 17.4 µM)
Ps. aeruginosa
  MIC: 50 µg/mL (≈ 279 µM)

## O=[N+]([O-])C=Cc1ccc(O)c([N+](=O)[O-])c1 [3-nitro-4-hydroxy-β-nitrostyrene]
Plant pathogenic fungi
  antifungal properties against plant pathogenic fungi: antifungal properties against plant pathogenic fungi
